Reference: patent US11931466B2, “Process for the preparation of drug loaded microparticles” (FERRING B.V., priority 2015, dated 2024)
≈ marks a conversion by molar mass, not a printed value. Counter-ions that a name gives are not always drawn.

Assays:
physchem = conditions: organic solvent or mixture
[1] = 20° C.; cited from earlier work

Molecule	solubility (physchem; 20 °C) [mg/mL]	other results
O=C1CC[C@@]2(O)[C@H]3Cc4ccc(O)c5c4[C@@]2(CCN3CC2CC2)[C@H]1O5 [Naltrexone hydrochloride]	–	solubility (physchem; benzyl alcohol, 20 °C): 800 mg/mL
glycofurol	–	solubility in water [1]: soluble
Cc1nc2n(c(=O)c1CCN1CCC(c3noc4cc(F)ccc34)CC1)CCCC2 [Risperidone]	500 (≈ 1220 mM)	–
CNCC[C@H](Oc1cccc2ccccc12)c1cccs1 [Duloxetine hydrochloride]	400	–
Cc1nc2n(c(=O)c1CCN1CCC(c3noc4cc(F)ccc34)CC1)CCCC2O (stereo not shown) [Paliperidone]	–	solubility (physchem; 60 °C): 233 mg/mL (≈ 546 mM)
CCN(C)C(=O)Oc1cccc([C@H](C)N(C)C)c1 [Rivastigmine tartrate]	200	–

Further lines, with some results ahead:

solubility (physchem; 20 °C) [mg/mL]	Molecule	other results
200 (≈ 469 mM)	COc1cc(C(C)=O)ccc1OCCCN1CCC(c2noc3cc(F)ccc23)CC1 [Iloperidone]	–
110 (≈ 293 mM)	O=C(CCCN1CCC(O)(c2ccc(Cl)cc2)CC1)c1ccc(F)cc1 [Haloperidol]	–
130	CC12CC3CC(C)(C1)CC(N)(C3)C2 [Memantine hydrochloride]	–
400 (≈ 892 mM)	O=C1CCc2ccc(OCCCCN3CCN(c4cccc(Cl)c4Cl)CC3)cc2N1 [Aripiprazole]	–
